Reference: US5858702A, “Isolation, cloning and expression of transmembrane water channel Aquaporin 5 (AQP5)” (The Johns Hopkins University, priority 1995, dated 1999)
Entries after “also recorded” stand apart in the source; their conditions may differ.

Legend:
AQP1 = molecular target: T1, AQP1 (Homo sapiens, UniProt P29972); assay: Xenopus oocyte osmotic swelling assay, AQP1 RNA-injected oocytes treated with HgCl2 / β-mercaptoethanol; type: cell-based; conditions: for Pf: AQP1 RNA-injected (10 ng) oocytes
T1 construct: expressed in transfected cells; host or cells: Xenopus laevis oocytes injected with in vitro transcribed AQP1 RNA
T1 sequence (P29972 1-269): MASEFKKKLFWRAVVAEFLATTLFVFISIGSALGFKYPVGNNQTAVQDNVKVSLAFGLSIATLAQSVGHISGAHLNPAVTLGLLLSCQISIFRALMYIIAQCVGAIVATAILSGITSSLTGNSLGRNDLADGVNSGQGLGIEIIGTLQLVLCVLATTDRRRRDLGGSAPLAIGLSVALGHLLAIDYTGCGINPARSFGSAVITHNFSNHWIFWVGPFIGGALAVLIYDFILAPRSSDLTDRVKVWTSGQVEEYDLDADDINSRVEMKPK
Protocol: (§1) Expression of AOP1 in Xenopus oocytes. Oocytes were removed from female Xenopus laevis frogs and prepared as described by Dascal (CRC Crit. Rev. Biochem., 1987, 22:317-373). Oocytes were injected with 0.05 microliters of water (control) or the same volume of water containing 1-10 nanograms of AQP1 RNA. The oocytes were incubated for up to 96 hours at 18° C. in modified Barth's buffer (88 mM NaCl, 1 mM KCl, 0.8 mM MgSO4, 0.3 mM Ca(NO3) 2, 0.4 mM CaCl2, 2.4 mM NaHCO3, 10 mM HEPES, pH =7.4, total osmolality =200 mOsm/kg) also containing antibiotics. The whole oocytes were then removed and total cellular protein was dissolved in 40 microliters of buffer containing 1% (w/v) SDS and analyzed by immunoblot (Towbin et al., 1979, Proc. Natl. Acad. Sci. USA 76:4350-4354).
(§2) A swelling assay was adapted from that of published work (Fischbarg et al., 1990, Proc. Natl. Acad. Sci. USA 87:3244-3247; Zhang et al., 1990, J. Biol. Chem. 265:15375-15378). Control-injected oocytes and AQP1 RNA-injected oocytes were incubated at 22° C. in modified Barth's solution diluted with distilled H2 O to 30% of the original tonicity. The oocytes were then observed by videomicroscopy. Swelling was monitored with a Nikon phase-contrast microscope equipped for videorecording. The longest (D1) and shortest (D2) diameters of the oocytes were measured at 15- to 30-second intervals. Oocyte volumes (V) at each time point were calculated relative to volume at the initial observation (V0):
The change in relative volume with time, d(V/Vo)/dt, up to 8 minutes (or time of oocyte rupture) was fitted by computer to a quadratic polynomial, and initial rates of swelling were calculated. Osmotic water permeability (Pf, in cm/s) was calculated from osmotic swelling data, initial oocyte surface area (S=0.045 cm^2), and the molar volume of water (Vw =18 cm^3 /mol) (Zhang et al., 1990, J. Biol. Chem. 15375):
Pf =[Vo ×d(V/V0)dt]/[S×Vw
After 72 hours, control- or AQP1 RNA-injected (10 ng) oocytes were treated as indicated. Some oocytes were left in standard Barth's buffer prior to measurement of osmotic swelling at 22° C. […]

Xenopus oocytes = assay: Osmotic water permeability (swelling) of control- or AQP1 RNA-injected Xenopus oocytes; type: cell-based, Xenopus laevis; conditions: control-injected oocytes (RNA None), 22° C.
Protocol: as §1
as §2, with “Control-injected oocytes and AQP1 RNA-injected oocytes were incubated at 22° C. in modified Barth's solution diluted with distilled H2 O to 30% of the original tonicity. The oocytes were then observed by videomicroscopy.” left out, “(V0): […]” for “(V0):”

AQP5 = molecular target: T2, AQP5 (Rattus norvegicus, UniProt P47864); assay: Xenopus oocyte swelling assay, AQP5-expressing oocytes treated with HgCl2 / β-mercaptoethanol; type: cell-based; conditions: for effect of HgCl2 on Pf of oocytes expressing AQP5: 1 mM HgCl2, 5 min.
T2 construct: expressed in transfected cells; host or cells: Xenopus oocytes (defolliculated, stage V-VI) injected with cRNA
T2 sequence (P47864 whole entry): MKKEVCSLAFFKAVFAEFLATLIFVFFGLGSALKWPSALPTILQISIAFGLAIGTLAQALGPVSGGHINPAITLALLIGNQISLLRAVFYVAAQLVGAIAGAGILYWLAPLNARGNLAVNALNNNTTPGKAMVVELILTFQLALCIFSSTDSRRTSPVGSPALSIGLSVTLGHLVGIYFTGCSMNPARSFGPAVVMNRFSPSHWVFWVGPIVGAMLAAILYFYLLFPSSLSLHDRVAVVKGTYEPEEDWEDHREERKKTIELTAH
Protocol: Functional expression in Oocytes--A 1-kb BamHI fragment containing the 5' untranslated sequence and the entire open reading frame of the salivary cDNA was blunt-end-ligated into the BglII site of the Xenopus expression construct pXβG, which contains the HindIII-Pst insert of pSP64T in pBS II KS (Preston et al., 1992, Science, 256:385-387). Capped cRNA was synthesized in vitro after digestion with Xbal (Preston et al., 1993). Defolliculated stage V-VI Xenopus oocytes were injected with 50 nl of water or up to 5 ng of sample cRNAs and incubated for 3 days at 18° C. in 200 mosM modified Barth's buffer. The oocytes were transferred to 70 mosM modified Barth's buffer at 21° C.; oocyte swelling was monitored by videomicroscopy, and the coefficient of osmotic water permeability (Pf) was determined (Preston et al., 1992, 1993). Uptake of [^14 C]urea or [^14 C]glycerol was measured by incubating oocytes in 200 mosM Barth's buffer for 10-20 min at 21° C. followed by washing and SDS solubilization. No increase in ion conductance was found when control oocytes were compared to RNA-injected oocytes by two electrode voltage clamps (Preston et al, 1992).
Shown are the mean values and standard deviations of 4-5 oocytes receiving no further treatment (stippled bars), oocytes incubated for 5 min. in 1 mM HgCl2 (black bars), or oocytes incubated for 5 min. in 1 mM HgCl2 followed by 30 min. in 5 mM β-mercaptoethanol (open bars). Similar to oocytes injected with AQP1 cRNA, injection of oocytes with the salivary cRNA increased the Pf by approximately 20-fold (FIG. 15). Therefore, the salivary protein qualifies as the 5th mammalian member of the Aquaporin family of water channels (Agre et al., 1993b, Am. J. Physiol., 265:F461), and the gene has been designated Aquaporin-5 (symbol AQP5) by the Genome Data Base.

Pf of AQP1 oocytes after HgCl2, effect of β-mercaptoethanol (AQP1; 5 mM β-mercaptoethanol 30 min. after 1 mM HgCl2 (FIG. 15)) | Swelling of AQP1 RNA-injected oocytes after HgCl2, effect of β-mercaptoethanol (AQP1; 5 mM β-mercaptoethanol after 0.3 mM HgCl2) | Pf (AQP1; HgCl2 0.3 then ME 5 for 15 min, 22° C.) [cm/s x 10^-4] | Pf of AQP5 oocytes after HgCl2, effect of β-mercaptoethanol (AQP5; 5 mM β-mercaptoethanol 30 min. after 1 mM HgCl2) | Compound | Swelling of AQP1 RNA-injected oocytes, effect of HgCl2 (AQP1; 0.3 mM HgCl2) | effect of HgCl2 on increase in Pf mediated by AQP1 (AQP1; 1 mM HgCl2, 5 min. (FIG. 15)) | Pf (AQP1; 72 hours, HgCl2 0.3, ME 0, 5 minutes, swelling at 22° C.) [cm/s x 10^-4] | Pf (AQP1; 72 hours, HgCl2 3.0, ME 0, 5 minutes, 22° C.) [cm/s x 10^-4] | Pf (Xenopus oocytes; HgCl2 0.3 (nM), ME 0) [cm/s x 10^-4] | effect of HgCl2 on Pf of oocytes expressing AQP5 (AQP5) | effect of HgCl2 on Pf of oocytes expressing AQP5 (AQP5; listed as Hg Cl2) | Pf (Xenopus oocytes) [cm/s x 10^-4]
 |  |  |  | [Cl][Hg][Cl] [HgCl2] | inhibited | blocked | 80.7 | 34.5 | 20.3 | comparable reduction in Pf; also recorded: reversibly inhibited | reversibly inhibited | 
restored | restored | 188 | restored | OCCS [β-mercaptoethanol] |  |  |  |  |  |  |  | 25.4
